From PubChem BioAssay (NCI)
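How tested: cells in 96-well plates exposed to compound for 48 hours at five concentrations. At the GI50, growth is halved. At the TGI there is no net growth.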

Key:
Assay in all cases: NCI anticancer screen, dose series, 48 h
A549 NSCLC = system: A549 NSCLC
HL-60(TB) leukemia = system: HL-60(TB) leukemia
IGROV1 ovarian = system: IGROV1 ovarian
MALME-3M melanoma = system: MALME-3M melanoma
NCI-H226 lung = system: NCI-H226 lung
SF-268 CNS = system: SF-268 CNS
SF-295 CNS = system: SF-295 CNS
SK-OV-3 ovarian = system: SK-OV-3 ovarian
UO-31 renal = system: UO-31 renal
HS 578T breast = system: HS 578T breast

COC(=O)C(NC(=O)CSc1nnc(COc2ccc(Cl)cc2)n1-c1ccccc1)C(C)C (stereo not drawn)
TGI (A549 NSCLC): > 100 µM
TGI (HL-60(TB) leukemia): > 100 µM
TGI (IGROV1 ovarian): 36.8 µM
TGI (MALME-3M melanoma): 31.9 µM
TGI (NCI-H226 lung): 33 µM
TGI (SF-268 CNS): 44.9 µM
TGI (SF-295 CNS): 42.2 µM
TGI (SK-OV-3 ovarian): > 100 µM
TGI (UO-31 renal): > 100 µM

COC(=O)n1c(C[P+](c2ccccc2)(c2ccccc2)c2ccccc2)cc2ccccc21
TGI (A549 NSCLC): 12.4 µM
TGI (HL-60(TB) leukemia): 6.12 µM
TGI (IGROV1 ovarian): 12 µM
TGI (MALME-3M melanoma): 17.1 µM
TGI (NCI-H226 lung): 5.95 µM
TGI (SF-268 CNS): 16.1 µM
TGI (SF-295 CNS): 5.9 µM
TGI (SK-OV-3 ovarian): 3.59 µM

COc1ccc(C2=C(OC(=O)N(C)C)c3cccn3-c3cc(Cl)ccc3S2)cc1
TGI (A549 NSCLC): > 10 µM
TGI (HL-60(TB) leukemia): > 10 µM
TGI (IGROV1 ovarian): > 10 µM
TGI (MALME-3M melanoma): > 10 µM
TGI (SF-268 CNS): > 10 µM
TGI (SF-295 CNS): > 10 µM
TGI (SK-OV-3 ovarian): > 10 µM

CCOC(=O)CCCn1cc(C(=O)OC)nn1
TGI (A549 NSCLC): > 100 µM
TGI (HS 578T breast): > 100 µM
TGI (IGROV1 ovarian): > 100 µM
TGI (MALME-3M melanoma): > 100 µM
TGI (NCI-H226 lung): > 100 µM
TGI (SF-268 CNS): > 100 µM
TGI (SF-295 CNS): > 100 µM
TGI (UO-31 renal): > 100 µM

CCOC(=O)C1CCCCc2sc(N)c(C#N)c21 (stereo not drawn)
TGI (A549 NSCLC): > 100 µM
TGI (HL-60(TB) leukemia): > 100 µM
TGI (HS 578T breast): > 100 µM
TGI (IGROV1 ovarian): > 100 µM
TGI (MALME-3M melanoma): > 100 µM
TGI (NCI-H226 lung): > 100 µM
TGI (UO-31 renal): > 100 µM

C=C1CC(Cn2cc(Br)c(=O)[nH]c2=O)(c2ccc(-c3ccccc3)cc2)OC1=O (stereo not drawn)
TGI (A549 NSCLC): 21.6 µM
TGI (HS 578T breast): > 20.5 µM
TGI (IGROV1 ovarian): 2.96 µM
TGI (MALME-3M melanoma): 3.06 µM
TGI (NCI-H226 lung): 4.31 µM
TGI (SF-268 CNS): 4.64 µM
TGI (SF-295 CNS): 18.5 µM
TGI (SK-OV-3 ovarian): 15.9 µM
TGI (UO-31 renal): 3.93 µM

CC(=O)CC1(C)OC(N)=C(C#N)C1(C#N)C#N (stereo not drawn)
TGI (A549 NSCLC): > 100 µM
TGI (HS 578T breast): > 100 µM
TGI (IGROV1 ovarian): > 100 µM
TGI (MALME-3M melanoma): > 100 µM
TGI (NCI-H226 lung): > 100 µM
TGI (SF-268 CNS): > 100 µM
TGI (SF-295 CNS): > 100 µM
TGI (SK-OV-3 ovarian): > 100 µM
TGI (UO-31 renal): > 100 µM

CC12CC(c3ccccc3O1)C(C(=O)Nc1cccc(F)c1)C(=O)N2 (stereo not drawn)
TGI (A549 NSCLC): > 100 µM
TGI (HL-60(TB) leukemia): > 100 µM
TGI (HS 578T breast): > 100 µM
TGI (IGROV1 ovarian): > 100 µM
TGI (MALME-3M melanoma): > 100 µM
TGI (SF-268 CNS): > 100 µM
TGI (SF-295 CNS): > 100 µM
TGI (SK-OV-3 ovarian): > 100 µM
TGI (UO-31 renal): 24.9 µM

C=C[C@@](C)(/C=C/c1ccc(O)cc1)CCC=C(C)C
TGI (A549 NSCLC): 35.1 µM
TGI (HL-60(TB) leukemia): 29.7 µM
TGI (HS 578T breast): 46.9 µM
TGI (IGROV1 ovarian): 30.5 µM
TGI (NCI-H226 lung): 35.4 µM
TGI (SF-295 CNS): 34.4 µM
TGI (SK-OV-3 ovarian): 30 µM
TGI (UO-31 renal): 32.4 µM

CC(C)(C)c1c(C(C)(C)C)c(=O)c1=O
TGI (A549 NSCLC): > 100 µM
TGI (HL-60(TB) leukemia): > 100 µM
TGI (HS 578T breast): > 100 µM
TGI (MALME-3M melanoma): > 100 µM
TGI (NCI-H226 lung): > 100 µM
TGI (SF-268 CNS): > 100 µM
TGI (SF-295 CNS): > 100 µM
TGI (SK-OV-3 ovarian): > 100 µM
TGI (UO-31 renal): > 100 µM

Cc1cc(=O)[nH]c(NNC(C#N)c2ccc([N+](=O)[O-])cc2)n1 (stereo not drawn)
TGI (A549 NSCLC): > 100 µM
TGI (HL-60(TB) leukemia): > 100 µM
TGI (IGROV1 ovarian): > 100 µM
TGI (MALME-3M melanoma): > 100 µM
TGI (NCI-H226 lung): > 100 µM
TGI (SF-268 CNS): > 100 µM
TGI (SF-295 CNS): > 100 µM
TGI (SK-OV-3 ovarian): > 100 µM
TGI (UO-31 renal): > 100 µM

CC(=O)NC1=C(NCC(C)C)C(=O)c2ccccc2C1=O
TGI (A549 NSCLC): > 100 µM
TGI (HL-60(TB) leukemia): 7.32 µM
TGI (IGROV1 ovarian): > 100 µM
TGI (MALME-3M melanoma): 34.2 µM
TGI (NCI-H226 lung): 29.5 µM
TGI (SF-268 CNS): 46.3 µM
TGI (SF-295 CNS): > 100 µM
TGI (SK-OV-3 ovarian): > 100 µM
TGI (UO-31 renal): 34.4 µM

NS(=O)(=O)c1cc(S(N)(=O)=O)c(NC(=O)N(c2ccccc2)c2ccccc2)c(Cl)c1Cl
TGI (A549 NSCLC): > 100 µM
TGI (HL-60(TB) leukemia): 52 µM
TGI (HS 578T breast): 44.9 µM
TGI (IGROV1 ovarian): 25.6 µM
TGI (NCI-H226 lung): 53.7 µM
TGI (SF-268 CNS): > 100 µM
TGI (SF-295 CNS): 95.9 µM
TGI (SK-OV-3 ovarian): 65.3 µM
TGI (UO-31 renal): 94.1 µM

CC1(C)COC(c2c(-c3ccccc3)noc2CS(=O)c2ccccc2)=N1 (stereo not drawn)
TGI (A549 NSCLC): > 100 µM
TGI (HL-60(TB) leukemia): 84.6 µM
TGI (IGROV1 ovarian): > 100 µM
TGI (MALME-3M melanoma): > 100 µM
TGI (NCI-H226 lung): > 100 µM
TGI (SF-268 CNS): > 100 µM
TGI (SF-295 CNS): > 100 µM
TGI (SK-OV-3 ovarian): > 100 µM
TGI (UO-31 renal): > 100 µM

COC(=O)CC(NC(=O)OCc1ccccc1)C(C(=O)OCc1ccccc1)C1(C)OCCO1 (stereo not drawn)
TGI (A549 NSCLC): > 100 µM
TGI (HL-60(TB) leukemia): 62.6 µM
TGI (IGROV1 ovarian): > 100 µM
TGI (MALME-3M melanoma): > 100 µM
TGI (NCI-H226 lung): 94.1 µM
TGI (SF-268 CNS): > 100 µM
TGI (SF-295 CNS): > 100 µM
TGI (UO-31 renal): 61.1 µM

O=C(CSc1nc2ccc(I)cc2c(=O)n1Cc1ccccc1)NN1C(=O)CCC1=O
TGI (A549 NSCLC): > 100 µM
TGI (HL-60(TB) leukemia): 87.6 µM
TGI (IGROV1 ovarian): 90.9 µM
TGI (NCI-H226 lung): 84.6 µM
TGI (SF-268 CNS): > 100 µM
TGI (SF-295 CNS): > 100 µM
TGI (SK-OV-3 ovarian): > 100 µM

CCCCCCOc1ccc(C(=N)N(CCCC)CCCC)c2ccccc12
GI50 (A549 NSCLC): 1.76 µM
TGI (A549 NSCLC): 3.31 µM
GI50 (HL-60(TB) leukemia): 1.81 µM
TGI (HL-60(TB) leukemia): 3.43 µM
GI50 (HS 578T breast): 1.61 µM
TGI (HS 578T breast): 3.76 µM
GI50 (IGROV1 ovarian): 1.34 µM
TGI (IGROV1 ovarian): 2.86 µM
GI50 (NCI-H226 lung): 1.53 µM
TGI (NCI-H226 lung): 3.07 µM
GI50 (SF-268 CNS): 1.62 µM
TGI (SF-268 CNS): 3.53 µM
GI50 (SF-295 CNS): 1.6 µM
TGI (SF-295 CNS): 3.17 µM
GI50 (SK-OV-3 ovarian): 1.57 µM
TGI (SK-OV-3 ovarian): 2.96 µM
GI50 (UO-31 renal): 1.14 µM
TGI (UO-31 renal): 2.55 µM

O=C1/C(=C\c2cccc(Oc3ccccc3)c2)SC(c2ccccc2)N1c1cccc([N+](=O)[O-])c1 (stereo not drawn)
TGI (A549 NSCLC): > 100 µM
TGI (HS 578T breast): > 100 µM
TGI (MALME-3M melanoma): > 100 µM
TGI (NCI-H226 lung): > 100 µM
TGI (SF-268 CNS): > 100 µM
TGI (SF-295 CNS): > 100 µM
TGI (SK-OV-3 ovarian): > 100 µM
TGI (UO-31 renal): > 100 µM

COc1cccc(CN(C(=O)/C=C\Sc2ccccc2)C(C)(C)C)c1
TGI (A549 NSCLC): > 100 µM
TGI (HL-60(TB) leukemia): > 100 µM
TGI (IGROV1 ovarian): > 100 µM
TGI (NCI-H226 lung): > 100 µM
TGI (SF-295 CNS): > 100 µM
TGI (SK-OV-3 ovarian): > 100 µM
TGI (UO-31 renal): > 100 µM

CCOC(=O)c1nc2ccccc2nc1NCc1ccc(Cl)cc1Cl
TGI (A549 NSCLC): > 100 µM
TGI (HS 578T breast): > 100 µM
TGI (IGROV1 ovarian): > 100 µM
TGI (MALME-3M melanoma): > 100 µM
TGI (NCI-H226 lung): > 100 µM
TGI (SF-268 CNS): > 100 µM
TGI (SF-295 CNS): > 100 µM
TGI (SK-OV-3 ovarian): > 100 µM
TGI (UO-31 renal): > 100 µM

C/C(=C\Cc1cc(O)ccc1O)CCc1c(C)cc(O)c(C=O)c1C
TGI (A549 NSCLC): > 100 µM
TGI (HL-60(TB) leukemia): > 100 µM
TGI (IGROV1 ovarian): 50.5 µM
TGI (MALME-3M melanoma): 53.8 µM
TGI (NCI-H226 lung): 78.5 µM
TGI (SF-268 CNS): 46 µM
TGI (SF-295 CNS): 79 µM
TGI (SK-OV-3 ovarian): > 100 µM
TGI (UO-31 renal): 78.1 µM

O=C1CSC2(CC(/C=C/c3ccccc3Br)=NN2c2cccc(S(=O)(=O)O)c2)N1c1nc2ccccc2s1 (stereo not drawn)
TGI (A549 NSCLC): > 100 µM
TGI (HL-60(TB) leukemia): > 100 µM
TGI (HS 578T breast): > 100 µM
TGI (IGROV1 ovarian): > 100 µM
TGI (MALME-3M melanoma): > 100 µM
TGI (NCI-H226 lung): > 100 µM
TGI (SF-268 CNS): > 100 µM
TGI (UO-31 renal): > 100 µM
